Results from article PMC8318231, “Rate-of-Kill (RoK) assays to triage large compound sets for Chagas disease drug discovery: Application to GSK Chagas Box” (PLoS Neglected Tropical Diseases, 2021).

What was measured:
[1] = system: T. cruzi Tulahuen trypomastigotes; test: T. cruzi trypomastigote assay (Cell Titer-Glo viability, ATP luminescence); type: cell-based, Trypanosoma cruzi; details: for Trypomastigotes pIC50 48 hours: 48 hours incubation; for Trypomastigotes pIC50 48 hours / Trypomastigotes pIC50 72 hours: pIC50 = -log10 IC50 in molar units; for Trypomastigotes pIC50 72 hours: 72 hours incubation; for 48 pIC50 / 72 pIC50: trypomastigote assay; for 48 pIC50: 48 h; for 72 pIC50: 72 h
Summary of the method: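 Tulahuen trypomastigotes from infected LLC-MK2 culture supernatants (days 5–8) plated at 5 × 10^4 per well in DMEM/2% FBS with compound at 5 μM single-shot final or in dose response. Viability by CellTiter-Glo ATP luminescence after 10 min at room temperature, normalised to no-cell (100%) and DMSO (0%) controls.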

[2] = system: TcCYP51; details: formerly reported; cited from earlier work

Compound | Trypomastigotes pIC50 48 hours [1] | Trypomastigotes pIC50 72 hours [1] | 48 pIC50 ([1]; figure 1A) | 72 pIC50 ([1]; figure 1A) | 72 pIC50 ([1]; figure 1B) | CYP51 pIC50 [2]
CC1=C(C(=O)Nc2ccc(Cl)cc2)C(c2ccncc2)n2ncc(C(=O)Nc3ccccc3)c2N1 (stereo not drawn) [TCMDC-143187] | < 4.3 | < 4.3 | < 4.3 | < 4.3 | < 4.3 | 6.9
O=C(Nc1cccc(F)c1)N1CCC(Oc2cccc(-c3cccnc3)c2)CC1 [TCMDC-143555] | < 4.3 | < 4.3 | < 4.3 | < 4.3 | < 4.3 | 6.8
O=C(c1cc2cc(Cl)ccc2[nH]1)N1CCCCC1c1cccnc1 (stereo not drawn) [TCMDC-143159] | 4.5 | 4.4 |  |  |  | 7.2
Cc1ccc(C)c(-n2nnnc2Sc2nc([N+](=O)[O-])nn2C)c1 [TCMDC-143530] | 5.3 | 5.4 |  |  |  | < 4
Cn1c(CN2CCN(c3ncc(C(F)(F)F)cc3Cl)CC2)nc2ccncc21 [TCMDC-143276] | < 4.3 | < 4.3 | < 4.3 | < 4.3 | < 4.3 | 7.1
O=S(=O)(NCC(c1cccnc1)N1CCN(c2ccccc2F)CC1)c1ccc(F)cc1 (stereo not drawn) [TCMDC-143142] | < 4.3 | < 4.3 | < 4.3 | < 4.3 | < 4.3 | 7.1
COc1ccc2ncc(F)c(NC(=O)[C@]3(O)CC[C@@H](NCc4ccc5c(c4)OCCO5)CC3)c2n1.Cl [TCMDC-143507] | 4.4 | 4.4 | 4.4 | 4.4 | 4.4 | 4.2
CC1=NN(C(=O)CCn2cnc([N+](=O)[O-])n2)C(O)(C(F)(F)F)C1 (stereo not drawn) [TCMDC-143157] | < 4.3 | < 4.3 | < 4.3 | < 4.3 | < 4.3 | < 4
Cc1ccc2sc(NC(=O)Cn3cnc([N+](=O)[O-])n3)nc2c1 [TCMDC-143284] | 5.6 | 5.3 |  |  |  | < 4
N#Cc1c(Oc2cccc(Cl)c2)cccc1[N+](=O)[O-] [TCMDC-143608] | 6.9 | 6.9 | 6.9 | 6.9 | 6.9 | < 4
N#Cc1cccc(CN2CCC(c3nc(-c4ccc(C(F)(F)F)nc4)no3)CC2)c1 [TCMDC-143179] | < 4.3 | < 4.3 | < 4.3 | < 4.3 | < 4.3 | < 4
C=CCn1nc([N+](=O)[O-])nc1Oc1ccc(Cl)cc1Cl [TCMDC-143151] | 6.1 | 6.3 |  |  |  | 4.7
O=C(COc1ncnc2cc([N+](=O)[O-])ccc12)NC(=O)NC1CCCCC1 [TCMDC-143564] | 5.7 | 5.9 |  |  |  | < 4
CN(Cc1nc2ccccc2s1)C(=O)C=Cc1cc2ccccc2o1 [TCMDC-143354] | 4.4 | < 4.3 |  |  |  | 6.8
O=c1[nH]c(C=Cc2cccc(OCCOc3ccccc3)c2)nc(O)c1[N+](=O)[O-] [TCMDC-143209] | < 4.3 | < 4.3 | < 4.3 | < 4.3 | < 4.3 | < 4
CC1(Oc2cncc(Cl)c2)CCN(Cc2cc3ccccc3[nH]2)C1 (stereo not drawn) [TCMDC-143162] | 5.6 | 6.1 |  |  |  | 5
Cc1cc(C)nc(N2CCC(N(Cc3cccnc3)C(=O)c3cccc(C#N)c3)CC2)n1 [TCMDC-143272] | < 4.3 | < 4.3 | < 4.3 | < 4.3 | < 4.3 | 6.9
N#Cc1cc([N+](=O)[O-])ccc1NC1CCCCCC1 [TCMDC-143143] | < 4.3 | < 4.3 | < 4.3 | < 4.3 | < 4.3 | < 4
Cl.Clc1ccc(C(CC2CCCCO2)Cn2cncn2)c(Cl)c1 (stereo not drawn) [TCMDC-143082] | < 4.3 | < 4.3 | < 4.3 | < 4.3 | < 4.3 | 6.6
CN(C)CCN(C)Cc1ccc(F)cc1NS(=O)(=O)c1ccc(Cl)c(Cl)c1 [TCMDC-143118] | 5.9 | 5.9 | 5.9 | 5.9 | 5.9 | < 4
Cc1cc(N(C)C)nc2ccc(Cc3cnc(N)nc3N)cc12 [TCMDC-143611] | 4.6 | 5.9 |  |  |  | < 4
CCN(CC)S(=O)(=O)c1ccc(Cn2nc(C(=O)Nc3ccncn3)c3ccccc32)cc1 [TCMDC-143288] | < 4.3 | < 4.3 | < 4.3 | < 4.3 | < 4.3 | 6.8
O=C(Nc1ncc([N+](=O)[O-])s1)C1CC1 [TCMDC-143417] | 6.1 | 6 |  |  |  | < 4
CCC(c1ccc(F)cc1)n1cncc1-c1cnn(C)c1 (stereo not drawn) [TCMDC-143416] | < 4.3 | < 4.3 | < 4.3 | < 4.3 | < 4.3 | 7.1
O=C1CCCCCC1(Cc1cnc[nH]1)c1ccc(Cl)cc1Cl (stereo not drawn) [TCMDC-143081] | < 4.3 | < 4.3 | < 4.3 | < 4.3 | < 4.3 | 7
CNc1cncc(C2CCCN2C(=O)Cc2coc3cc(C)ccc23)n1 (stereo not drawn) [TCMDC-143464] | < 4.3 | < 4.3 | < 4.3 | < 4.3 | < 4.3 | 7.6
Cn1nc([N+](=O)[O-])nc1N1CCCCC1 [TCMDC-143088] | < 4.3 | < 4.3 | < 4.3 | < 4.3 | < 4.3 | < 4
Cc1ccc2c(c1)-c1onc(C(=O)N3CCCCC3c3cccnc3)c1CO2 (stereo not drawn) [TCMDC-143191] | 4.7 | 4.4 |  |  |  | 7
O=C(NCc1ccc(-n2cccc2)cc1)c1nc(Cn2ccc([N+](=O)[O-])n2)no1 [TCMDC-143103] | 6 | 5.9 |  |  |  | < 4
Cc1cccc(NS(=O)(=O)c2ccc3c(c2)C(=O)c2cc(S(=O)(=O)Nc4cccc(C)c4C)ccc2-3)c1C [TCMDC-143615] | 5 | 4.8 |  |  |  | < 4
